This note sets out measurements from US10221190B2, “Biguanide compounds and use thereof” (IMMUNOMET THERAPEUTICS INC., priority 2013, dated 2019).

Bounds are passed on as bounds.

One test deals with HCT116 cell. Put plainly: Inhibitory activity against cancer cells (MTT cell viability), HCT116. As to conditions: HCT 116, 48 hr incubation. In kind it is cell-based, human. On the procedure:
The inhibitory activities of biguanide derivatives against cancer cells were evaluated in the cell line SK-MEL-28 derived from human Melanoma cell, Miapaka-2 cell line derived from human pancreatic cancer cell and HCT116 cell line derived from human colorectal cancer cell by measuring the concentration that inhibits 50% of the growth of the cell lines (the half maximal inhibitory concentration, IC50).
Firstly, SK-MEL-28 cells were grown to be density of 5,000 cells/well in RPMI-1640 media supplemented with 10% (v/v) bovine calf serum, on 96-well plates for 16 hr. To measure the IC50 of each compound, the cells were incubated for 48 hr with the 100 mM PBS stock compounds at an amount of 10 mM, 1 mM, 200 uM, 40 uM, 8 uM, 1.6 uM, 0.32 uM or 0.064 uM; 50 mM PBS and EtOH stock compounds at an amount of 1 mM, 200 uM, 40 uM, 8 uM, 1.6 uM, 0.32 uM and 0.064 uM; and 50 mM DMSO stock compounds at an amount of 100 uM, 25 uM, 6.25 uM, 1.56 uM, 0.39 uM, 0.10 uM and 0.02 uM, respectively. To test the viable cells after incubation with each compound, the cell cultures were incubated additionally for 2 hr in the presence of MTT. The produced formazan crystals were dissolved with dimethyl sulfoxide and then measured by detecting the absorbance at 560 nm.
After the 48 hr incubation, the viable cells were counted on the well plates treated with the compounds of the Examples relative to the count of the viable cells on the non-treated plates, and then was represented as the cell viability (%). By using the cell viability (%) result, the cell viability curve was plotted, and IC50 was calculated from the curve to evaluate the inhibitory activity against cancer cells.
The inhibitory activities of biguanide derivatives against cancer cells of Miapaca-2 cell and HCT116 cell were evaluated according to the substantially same method as described in SK-MEL-28 cell, except that DMEM media supplemented with 10% (v/v) bovine calf serum was used instead of RPMI-1640 media supplemented with 10% (v/v) bovine calf serum for SK-MEL-28 cell.
For the molecule “N1-3-phenoxyphenyl-N5-(4-trifluoromethoxy)phenyl biguanide [Example 76]”, the IC50 came out at 3.12 µM.

The test is the same for the next values; noted with them: Homo sapiens, HCT 116, 48 hr incubation.
As for `N=C(NC(=N)N1CCCC1)Nc1ccc(CCNC(=O)CCCCC2CC3NC(=O)NC3S2)cc1` (stereo not shown) [Example 77, N-(4-(3-(imino(pyrrolidin-1-yl)methyl)guanidino)phenethyl)-5-(2-oxohexahydro-1H-thieno[2,3-d]imidazol-5-yl)pentaneamide], the IC50 was more than 100 µM.

The molecule `N=C(N)NC(=N)Nc1ccc(F)cc1` [Example 55, N5-4-fluorophenyl biguanide] gave an IC50 of more than 100 µM.

`C[C@@H]1CCC[C@H](C)N1C(=N)NC(=N)Nc1ccc(CCN)cc1` [Example 46] yielded an IC50 of more than 100 µM.

`N=C(N)NC(=N)Nc1ccc(F)c(Cl)c1` [Example 58, N5-(3-chloro-4-fluoro)phenyl biguanide] came in with a 50% inhibitory concentration (IC50) of more than 100 µM.

Consider `N=C(NC(=N)N1CC[C@@H](O)C1)Nc1ccc(OC(F)(F)F)cc1` [Example 19, N1-(R)-3-hydroxy pyrrolidine-N5-(4-trifluoromethoxy)phenyl biguanide], for which the IC50 was more than 100 µM.

`N=C(NC(=N)N1CCc2ccccc21)Nc1ccc(Oc2ccccc2)cc1` [Example 90, N—(N-(4-phenoxyphenyl)carbamimidoyl)indoline-1-carboximidamide] returned an IC50 of 27.7 µM.

For `N=C(N)NC(=N)Nc1ccc(SC(F)(F)F)cc1` [Example 60, N5-(4-trifluoromethylthio)phenyl biguanide], the IC50 was 49.8 µM.

`CCNC(=O)c1ccc(CNC(=N)NC(=N)N2CCCC2)cc1` [Example 27, N-ethyl-4-((3-(imino(pyrrolidin-1-yl)methyl)guanidino)methyl)benzamide] gave an IC50 of more than 100 µM.

As for `CN1CCN(C(=N)NC(=N)NCc2cccc(Br)c2)CC1` [Example 34, N1-4-methyl piperazine-N5-(3-bromo)benzyl biguanide], the IC50 is more than 100 µM.

Consider `CC1CC(C)CN(C(=N)NC(=N)Nc2ccc(CCN)cc2)C1` (stereo not shown) [Example 49], for which the half-maximal inhibitory concentration (IC50) was more than 100 µM.

Take `CN1CCN(C(=N)NC(=N)Nc2ccc(Br)cc2)CC1` [Example 31, N1-4-methyl piperazine-N5-(4-bromo)phenyl biguanide]: the IC50 came to 93.6 µM.

Turning to `N=C(N)NC(=N)Nc1ccc(Cl)c(Cl)c1` [Example 56], the IC50 is 34.8 µM.

Regarding `CN1CCN(C(=N)NC(=N)NCc2ccc(C(F)(F)F)c(F)c2)CC1` [Example 42, N1-4-methyl piperazine-N5-(3-fluoro-4-trifluoromethyl)benzyl biguanide], the IC50 is more than 100 µM.

Molecule `N=C(Nc1nc2cc(OC(F)(F)F)ccc2[nH]1)N1CCCC1` [Example 92, N-(5-(trifluoromethoxy)-1H-benzo[d]imidazol-2-yl)pyrrolidine-1-carboximidamide] showed an IC50 of more than 100 µM.

`N=C(NC(=N)N1CCCC1)Nc1ccc(-c2ccccc2)cc1` [Example 9, N1-pyrrolidine-N5-(N-biphenyl-4-yl) biguanide] showed an IC50 of 7.43 µM.

`N=C(N)NC(=N)Nc1ccc(Cl)cc1Cl` [Example 54] displayed an IC50 of more than 100 µM.

The molecule `N=C(N)NC(=N)Nc1cccc(Cl)c1Cl` [Example 59, N5-(2,3-dichloro)phenyl biguanide] had an IC50 of more than 100 µM.

As for `CC1CCCCN1C(=N)NC(=N)Nc1ccc(CCN)cc1` (stereo not shown) [Example 48], the IC50 was more than 100 µM.

`C[C@@H]1CCC[C@H](C)N1C(=N)NC(=N)Nc1ccc(CCNC(=O)CCCCC2CC3NC(=O)NC3S2)cc1` (stereo partly drawn) [Example 81, N-(4-(3-(((2R,6S)-2,6-dimethylpiperidin-1-yl)(imino)methyl)guanidino)phenethyl)-5-(2-oxohexahydro-1H-thieno[2,3-d]imidazol-5-yl)pentanamide] registered an IC50 of more than 100 µM.

As for `CN(C)C(=N)NC(=N)Nc1ccc(SCC(=O)N2CCCCC2)cc1` [Example 61, N1,N1-dimethyl-N5-4-(2-oxo-2-(piperidin-1-yl)ethylthio)phenyl biguanide], the IC50 is more than 100 µM.

`COc1ccc2[nH]c(NC(=N)N3CCCC3)nc2c1` [Example 95, N-(5-methoxy-1H-benzo[d]imidazol-2-yl)pyrrolidine-1-carboximidamide] came in with an IC50 of more than 100 µM.

Molecule `N=C(NC(=N)Nc1ccc(-c2ccccc2)cc1)Nc1ccc(OC(F)(F)F)cc1` [Example 75, N1-(4-trifluoromethoxy)phenyl-N5-(N-biphenyl-4-yl) biguanide] gave an IC50 of 8.21 µM.

Consider `N=C(NC(=N)NC1CCCC1)Nc1ccc(F)cc1` [Example 69, N1-cyclopentyl-N5-(4-fluoro)phenyl biguanide], for which it took 68.5 µM to reach half-maximal inhibition (IC50).

Molecule `N=C(NC(=N)Nc1ccc(F)c(C(F)(F)F)c1)Nc1cccnc1` [Example 65, N1-3-pyridine-N5-(4-fluoro-3-trifluoromethyl)phenyl biguanide] returned an IC50 of more than 100 µM.

Take `N=C(NCc1ccco1)NC(=N)Nc1ccc(C(F)(F)F)cc1` [Example 72, N1-furan-2-ylmethyl-N5-(4-trifluoromethyl)phenyl biguanide]: the IC50 stood at 8.8 µM.

On to `CN1CCN(C(=N)NC(=N)NCc2ccc(OC(F)(F)F)c(F)c2)CC1` [Example 43, N1-4-methyl piperazine-N5-(3-fluoro-4-trifluoromethoxy)benzyl biguanide], for which the IC50 is more than 100 µM.

As for `CC(C)(NC(=N)NC(=N)N1CCCC1)c1ccccc1` [Example 13, N1-pyrrolidine-N5-(2-phenylpropane-2-yl) biguanide], the IC50 was more than 100 µM.

The molecule `N=C(Nc1nc2cc(F)ccc2[nH]1)N1CCCC1` [Example 93, N-(5-fluoro-1H-benzo[d]imidazol-2-yl)pyrrolidine-1-carboximidamide] registered an IC50 of more than 100 µM.

`CN1CCN(C(=N)NC(=N)Nc2ccccc2Br)CC1` [Example 33, N1-4-methyl piperazine-N5-(2-bromo)phenyl biguanide] yielded an IC50 of more than 100 µM.

With `CN1CCN(C(=N)NC(=N)NCc2ccc(F)c(OC(F)(F)F)c2)CC1` [Example 41, N1-4-methyl piperazine-N5-(4-fluoro-3-trifluoromethoxy)benzyl biguanide], the IC50 is more than 100 µM.

`CC1CCCCN1C(=N)NC(=N)Nc1ccc(CCNC(=O)CCCCC2CC3NC(=O)NC3S2)cc1` (stereo not shown) [Example 78, N-(4-(3-(imino(2-methylpiperidin-1-yl)methyl)guanidino)phenethyl)-5-(2-oxohexahydro-1H-thieno[2,3-d]imidazol-5-yl)pentanamide] had a 50% inhibitory concentration (IC50) of more than 100 µM.

Molecule `N=C(NCc1ccc(C(F)(F)F)cc1)NC(=N)Nc1cccnc1` [Example 64, N1-3-pyridine-N5-(4-trifluoromethyl)benzyl biguanide] displayed an IC50 of 29.2 µM.

The molecule `CC1CC(C)CN(C(=N)NC(=N)Nc2ccc(CNC(=O)c3ccccc3-c3c4ccc(=O)cc-4oc4cc(O)ccc34)cc2)C1` (stereo not shown) [Example 85, N-(4-(3-((3,5-dimethylpiperidin-1-yl)(imino)methyl)guanidino)benzyl)-2-(6-hydroxy-3-oxo-3H-xanthen-9-yl)benzamide] showed an IC50 of 28.8 µM.

Regarding `N=C(NCc1ccco1)NC(=N)Nc1ccc(OC(F)(F)F)cc1` [Example 71, N1-furan-2-ylmethyl-N5-(4-trifluoromethoxy)phenyl biguanide], the IC50 stood at 6.9 µM.

As for `Cc1ccc2[nH]c(NC(=N)N3CCCC3)nc2c1` [Example 94, N-(5-methyl-1H-benzo[d]imidazol-2-yl)pyrrolidine-1-carboximidamide], the IC50 is more than 100 µM.

Regarding `N=C(N)NC(=N)Nc1cc(C(F)(F)F)ccc1Cl` [Example 57, N5-(2-chloro-5-trifluoromethyl)phenyl biguanide], the IC50 is more than 100 µM.

`N=C(NC(=N)N1CCC(O)CC1)Nc1ccc(Oc2ccccc2)cc1` [Example 21, N1-4-hydroxy piperidine-N5-(4-phenoxy)phenyl biguanide] had an IC50 of more than 100 µM.

Molecule `N=C(NCc1ccco1)NC(=N)Nc1ccc(Cl)cc1` [Example 70, N1-furan-2-ylmethyl-N5-(4-chloro)phenyl biguanide] had an IC50 of 13.5 µM.

`CN(C)c1ccc(NC(=N)NC(=N)N2CCCC2)cc1` [Example 5, N1-pyrrolidine-N5-(4-dimethylamino)phenyl biguanide] had an IC50 of more than 100 µM.

`N=C(NC(=N)N1CCc2ccccc21)Nc1ccc(OC(F)(F)F)cc1` [Example 88, N—(N-(4-(trifluoromethoxy)phenyl)carbamimidoyl)indoline-1-carboximidamide] came in with an IC50 of 7.42 µM.

`N=C(NC(=N)N1CC=CCC1)Nc1ccc(CCNC(=O)CCCCC2CC3NC(=O)NC3S2)cc1` (stereo not shown) [Example 80, N-(4-(3-((5,6-dihydropyridin-1(2H)-yl)(imino)methyl)guanidino)phenethyl)-5-(2-oxohexahydro-1H-thieno[2,3-d]imidazol-5-yl)pentanamide] yielded a half-inhibitory concentration (IC50) of more than 100 µM.

`N=C(NC(=N)N1CCCC1)NC1CCCc2ccccc21` (stereo not shown) [Example 15, N1-pyrrolidine-N5-(1,2,3,4-tetrahydronaphthalen-1-yl) biguanide] had an IC50 of 712 µM.
